IC50 data for nine compounds are collected here from patent US20220265590A1, “DIBENZYLAMINES AS AMINO ACID TRANSPORT INHIBITORS” (VANDERBILT UNIVERSITY, priority 2019, published 2022).

Assay [1] has as its system HEK293 cells. Description: Glutamine uptake inhibition assay (3H-labeled glutamine accumulation in live cells). The class given is cell-based. Particulars: Homo sapiens, 15 minutes incubation with 3H-GLN (500 nM), assay buffer pH 6, triplicate, read-out: ^3H Glut IC50. On the procedure:
Twenty-four hours prior to assay, HEK293 cells were seeded at a density of 12K cells per well into a 96 well plate (coated with poly-D-Lysine). […] Accumulation of 3H-labeled glutamine (3H-GLN) in live cells was assessed by incubation for 15 minutes with vehicle or test reagent at the concentrations indicated. The final concentration of 3H-GLN was 500 nM. Each compound was evaluated in triplicate. For the assay, cells were rinsed with assay buffer (pH 6) three times (100 uL). Compounds were transferred in a single-add protocol and incubated for 15 minutes with 3H-GLN. After the uptake period, the supernatant was removed and cell monolayers were washed 3× with 100 μl assay buffer. Subsequently, cells were lysed with 50 μl 1M NaOH and 150 μl scintillation liquid was added to each well. The plate was incubated at room temperature for 20 minutes, transferred to 4° C. storage overnight, and read the next day using a top-count plate reader (Perkin Elmer).

Assay [2] has as its system HEK293 cells. The experiment in a line: Viability (Cell Titer, CellTiter-Glo). The class given is cell-based. Conditions: Homo sapiens, 48 h incubation, 96-well plate. How it is done:
Viability (Cell Titer) was evaluated using a commercially available chemiluminescent reagents (CellTiter-Glo, Promega Corp. G7572) in 96-well plate format according to the manufacturers protocol. Cells were exposed to either vehicle or test agent at the indicated concentrations and incubated for a period of 48 h. Subsequently, CellTiter-Glo reagent was added and the plates were read using a plate reader (BioTek Synergy 4) with standard settings.
On the technique in general: In ATP-based viability assays light output follows the ATP content of the culture.

Molecules are shown by their SMILES. Some results are limits rather than exact numbers.

`N[C@@H](CCN(Cc1ccccc1OCc1ccc(Cl)cc1)Cc1ccccc1Oc1ccc(Cl)cc1)C(=O)O` [Cpd. No. 11, (S)-2-amino-4-((2-((4-chlorobenzyl)oxy)benzyl)(2-(4-chlorophenoxy)benzyl)amino)butanoic acid]: the IC50 (usually the concentration that gives 50% inhibition) in the assay on HEK293 cells [1] is below 100 µM; in the assay with HEK293 cells [2] it was 12.7 µM. For `COc1cccc(COc2ccccc2CN(CC[C@H](N)C(=O)O)Cc2ccccc2Oc2ccc(Cl)cc2)c1` [Cpd. No. 20, (S)-2-amino-4-((2-(4-chlorophenoxy)benzyl)(2-((3-methoxybenzyl)oxy)benzyl)amino) butanoic acid], the IC50 with HEK293 cells [1] was determined as 3.19 µM; in the assay with HEK293 cells [2] it was 13.9 µM. On to `Cc1cccc(COc2ccccc2CN(CC[C@H](N)C(=O)O)Cc2ccccc2Oc2ccc(Cl)cc2)c1` [Cpd. No. 21, (S)-2-amino-4-((2-(4-chlorophenoxy)benzyl)(2-((3-methylbenzyl)oxy)benzyl)amino) butanoic acid], for which the IC50 worked out at 25.1 µM in the assay on HEK293 cells [1] and 28.9 µM in the assay on HEK293 cells [2]. For `N[C@@H](CCN(Cc1ccccc1OCc1ccccc1F)Cc1ccccc1Oc1ccccc1F)C(=O)O` [compound 7, (S)-2-amino-4-((2-((2-fluorobenzyl)oxy)benzyl)(2-(2-fluorophenoxy)benzyl)amino)butanoic acid], in that order: 94.2 µM and 18.7 µM. `N[C@@H](CCN(Cc1ccccc1OCc1ccc(F)cc1)Cc1ccccc1Oc1ccccc1F)C(=O)O` [compound 8, (S)-2-amino-4-((2-((4-fluorobenzyl)oxy)benzyl)(2-(2-fluorophenoxy)benzyl)amino)butanoic acid]: the IC50 with HEK293 cells [1] was 117 µM. Same read-out and setting: then `N[C@@H](CCN(Cc1ccccc1OCc1ccccc1F)Cc1ccccc1Oc1ccc(Cl)cc1)C(=O)O` [compound 10, (S)-2-amino-4-((2-(4-chlorophenoxy)benzyl)(2-((2-fluorobenzyl)oxy)benzyl)amino)butanoic acid], with 43 µM. As for `COc1ccc(Oc2ccccc2CN(CC[C@H](N)C(=O)O)Cc2ccccc2OCc2ccc(F)cc2)cc1` [compound 13, (S)-2-amino-4-((2-((4-fluorobenzyl)oxy)benzyl)(2-(4-methoxyphenoxy)benzyl)amino)butanoic acid], the IC50 in the assay on HEK293 cells [1] amounted to 29 µM. For the compound `COc1ccc(Oc2ccccc2CN(CC[C@H](N)C(=O)O)Cc2ccccc2OCc2ccc(Cl)cc2)cc1` [compound 14, (S)-2-amino-4-((2-((4-chlorobenzyl)oxy)benzyl)(2-(4-methoxyphenoxy)benzyl)amino)butanoic acid], the half-inhibitory concentration (IC50) in the assay on HEK293 cells [1] worked out at 164 µM.

`N[C@@H](CCN(Cc1ccccc1OCc1ccc(F)cc1)Cc1ccccc1Oc1ccc(Cl)cc1)C(=O)O` [compound 15, (S)-2-amino-4-((2-(4-chlorophenoxy)benzyl)(2-((4-fluorobenzyl)oxy)benzyl)amino)butanoic acid]: in the assay on HEK293 cells [1], the IC50 is 31.4 µM.
